# What was measured:
# ACKR3 [1] = molecular target: T1, ACKR3 (Homo sapiens, UniProt P25106); test: NanoBiT clathrin A/β-arrestin2 interaction in ACKR3-expressing HEK293T cells; format: cell-based
# T1 construct: expressed in transfected cells; host or cells: HEK293T
# Procedure: (§1) For 1·10^6 HEK293T cells, a transfection mix consisting of 2 μg plasmid DNA, 12 μg linear PEI in a total volume of 200 μL 150 mM NaCl was made and thoroughly vortexed. The transfection mix was incubated for 15 minutes and consequently added to a cell suspension with a final concentration of 3·10^5 cells/mL. For functional studies this cell suspension was immediately transferred to a poly-L-lysine-coated white 96-well plate, with 3·10^4 cells per well. […] For BRET-based membrane localization experiments, the 2 μg plasmid DNA consisted of ACKR3-NL (0.05 μg), mVenus-CAAX (0.25 μg), and pcDEF3 vector DNA without insert (1.7 μg).
# Two days after transfection (vide supra), medium was aspirated and cells were reconstituted in HBSS with 0.05% BSA. […] After treating the cell with ligand furimazine was added (310 times diluted from stock concentration). Cells were incubating at 37 °C for another 3 minutes before detection of bioluminescent intensities.
# Bioluminescence was measured using the PHERAstar-FSX and is a measure for the relative proximity of LgBiT- and SmBiT-tagged proteins and thus the occurrence of investigated protein–protein interaction.[38]
# (§2) Fig. 5 Inhibition of both constitutive as well as agonist-induced ACKR3 activity by VUF16840. HEK293T cells were stimulated with increasing concentrations of VUF15485 or VUF16840 only (A–D), or increasing concentrations of VUF16840 in the presence of 100 nM VUF15485 (E–H). The resulting proximity between ACKR3 and β-arrestin1 (A, E), GRK2 (B, F), or Rab5a (C, G) was determined by bioluminescence resonance energy transfer. Furthermore, an interaction between clathrin A and β-arrestin2 was measured by NLuc complementation, as was determined by quantifying the relative light units (D, H). Depicted data is normalized as fold-basal and represents the mean ± SD of N experiments with triplicate measurements per experiment. N is specified in Supplemental Table 1.
# ACKR3 [2] = molecular target: T1, ACKR3; test: BRET β-arrestin1 recruitment to ACKR3 in HEK293T cells; format: cell-based; conditions: for EC50: * VUF16840 as inverse agonist, read-out: β-arrestin1 BRET pEC50 (converted); for IC50: read-out: β-arrestin1 BRET, Inhibition by VUF16840 (pIC50) (converted)
# Procedure: For bioluminescence resonance energy transfer (BRET) experiments, several BRET acceptor constructs were used that consist of the pcDEF3 vector with either GRK2 (NCBI: NM_174710.2), β-arrestin1 (NCBI: NM_174243.3), or β-arrestin2 (NCBI: XM_005220181.4) fused at the C-terminus with a SpeI/NotI linker to mVenus (NCBI: KP666136.1), as previously described.[34]
# as §1
# Mean pIC50 values were determined by averaging fitted values from individual experiments. Graphs depict the pooled data of all experiments. Similarly, sigmoidal, ligand-induced concentration-dependent activation or inhibition of the proximity between ACKR3 and the protein of interest was analyzed using GraphPad Prism 8, by fitting a 3-parameter concentration-response model to the data, to determine pEC50/pIC50 values. Mean pEC50 values and pIC50 values were determined by averaging fitted values from individual experiments. Graphs depict the pooled data of all experiments, for which values are normalized, per experiment, to the fold difference compared with basal signal.
# as §2, with “HEK293T” for “Fig. 5 Inhibition of both constitutive as well as agonist-induced ACKR3 activity by VUF16840. HEK293T”
# T1 sequence (P25106 whole entry): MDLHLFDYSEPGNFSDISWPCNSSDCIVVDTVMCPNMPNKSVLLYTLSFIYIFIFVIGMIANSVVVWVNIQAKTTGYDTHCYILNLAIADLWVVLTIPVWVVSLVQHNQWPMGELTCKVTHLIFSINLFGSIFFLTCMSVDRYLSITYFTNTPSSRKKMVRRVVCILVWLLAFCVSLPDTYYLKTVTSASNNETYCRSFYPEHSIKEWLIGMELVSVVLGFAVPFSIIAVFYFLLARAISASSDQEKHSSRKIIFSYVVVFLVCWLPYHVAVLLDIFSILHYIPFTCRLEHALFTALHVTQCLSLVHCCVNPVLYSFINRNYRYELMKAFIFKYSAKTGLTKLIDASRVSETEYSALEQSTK
"EC50 (ACKR3 [1]; NanoBiT, read-out: EC50, clathrin A/β-arrestin2 interaction) [nM]",EC50 (ACKR3 [2]) [nM],"EC50 (ACKR3 [1]; * VUF16840 as inverse agonist, read-out: Clathrin A/ β-arrestin2 binding pEC50 (converted)) [nM]","IC50 (ACKR3 [1]; versus 100 nM VUF15485, read-out: Clathrin A/ β-arrestin2 binding, Inhibition by VUF16840 (pIC50) (converted)) [nM]",IC50 (ACKR3 [2]; versus 100 nM CXCL11) [nM],IC50 (ACKR3 [2]; versus 100 nM CXCL12) [nM],IC50 (ACKR3 [2]; versus 100 nM VUF15485) [nM],SMILES
6,39.8,–,–,–,–,–,"COc1cc(C(=O)N(CCC2CCCN2C)CC(C)=Cc2ccccc2F)cc(OC)c1OC (centres unmarked) [VUF15485, reference compound]"
–,5.01,10,50.1,2.51,5.01,2,COc1ccccc1CCNC(=O)C1CN(C2CCCCC2)CCC1NC(=O)c1cc(-c2ccc(F)cc2F)on1 (centres unmarked) [VUF16840]

# Reference: paper PMC12799421, “Inhibition of constitutive activity of the atypical chemokine receptor 3 by the small-molecule inverse agonist VUF16840” (Molecular Pharmacology, 2025)
